Experimental findings from ChEMBL document CHEMBL1145157, “Synthesis and structure-activity relationships of soluble 7-substituted 3-(3,5-dimethoxyphenyl)-1,6-naphthyridin-2-amines and related ureas as dual inhibitors of the fibroblast growth factor receptor-1 and vascular endothelial growth factor receptor-2 tyrosine kinases” (J Med Chem, 2005) are described below.

In test [1] the target is Platelet-derived growth factor receptor (PDGFr) (Rattus norvegicus, UniProt P20786+Q05030). In words: Inhibition of PDGF-dependent rat glioma cell proliferation. Format: functional.
The target of test [2] is Platelet-derived growth factor receptor beta (Mus musculus, UniProt P05622). In words: Inhibition of glutamate/tyrosine (4:1) copolymer phosphorylation by mouse platelet-derived growth factor receptor-beta.
Sequence of Platelet-derived growth factor receptor beta (P05622 whole entry): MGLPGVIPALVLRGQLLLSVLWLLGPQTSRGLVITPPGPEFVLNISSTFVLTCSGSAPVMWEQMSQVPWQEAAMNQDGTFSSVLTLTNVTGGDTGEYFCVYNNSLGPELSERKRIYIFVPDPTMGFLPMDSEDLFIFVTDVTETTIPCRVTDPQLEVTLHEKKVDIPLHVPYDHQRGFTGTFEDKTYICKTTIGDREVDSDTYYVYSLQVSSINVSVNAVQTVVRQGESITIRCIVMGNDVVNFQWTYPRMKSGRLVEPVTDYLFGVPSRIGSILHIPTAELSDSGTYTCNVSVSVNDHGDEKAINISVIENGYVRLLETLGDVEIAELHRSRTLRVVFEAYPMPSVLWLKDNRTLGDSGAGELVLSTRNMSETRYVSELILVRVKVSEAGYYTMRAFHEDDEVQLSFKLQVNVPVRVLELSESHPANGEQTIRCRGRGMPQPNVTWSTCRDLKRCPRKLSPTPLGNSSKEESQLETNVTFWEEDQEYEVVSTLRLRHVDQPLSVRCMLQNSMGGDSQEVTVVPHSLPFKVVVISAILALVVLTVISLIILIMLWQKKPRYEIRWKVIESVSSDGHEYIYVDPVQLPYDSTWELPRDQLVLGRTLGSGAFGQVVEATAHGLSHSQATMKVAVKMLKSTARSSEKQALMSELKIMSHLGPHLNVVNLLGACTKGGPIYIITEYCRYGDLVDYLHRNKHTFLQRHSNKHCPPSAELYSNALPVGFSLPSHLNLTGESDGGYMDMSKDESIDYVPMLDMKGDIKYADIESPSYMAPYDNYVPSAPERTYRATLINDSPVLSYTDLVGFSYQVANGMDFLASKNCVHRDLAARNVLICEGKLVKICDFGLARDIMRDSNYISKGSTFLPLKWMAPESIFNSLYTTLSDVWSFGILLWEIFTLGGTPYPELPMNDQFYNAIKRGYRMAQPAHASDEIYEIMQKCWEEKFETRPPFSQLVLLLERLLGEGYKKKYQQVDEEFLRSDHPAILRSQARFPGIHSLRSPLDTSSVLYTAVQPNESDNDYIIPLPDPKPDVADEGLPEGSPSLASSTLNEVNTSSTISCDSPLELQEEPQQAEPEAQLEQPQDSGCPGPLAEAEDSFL
For test [3], the target named is Proto-oncogene tyrosine-protein kinase Src (Gallus gallus, UniProt P00523). Put plainly: Inhibition of glutamate/tyrosine (4:1) copolymer phosphorylation by avian c-Src tyrosine kinase.
The target of test [4] is Vascular endothelial growth factor receptor (Homo sapiens, UniProt P17948+P35916+P35968). In words: Inhibition of VEGF-stimulated human umbilical vein endothelial cell proliferation. The class given is functional, cell-based.
Test [5] deals with Vascular endothelial growth factor receptor 2 (Homo sapiens, UniProt P35968). In words: Inhibition of glutamate/tyrosine (4:1) copolymer phosphorylation by human VEGFR 2 in DELFIA assay.
Sequence of Vascular endothelial growth factor receptor 2 (P35968 whole entry): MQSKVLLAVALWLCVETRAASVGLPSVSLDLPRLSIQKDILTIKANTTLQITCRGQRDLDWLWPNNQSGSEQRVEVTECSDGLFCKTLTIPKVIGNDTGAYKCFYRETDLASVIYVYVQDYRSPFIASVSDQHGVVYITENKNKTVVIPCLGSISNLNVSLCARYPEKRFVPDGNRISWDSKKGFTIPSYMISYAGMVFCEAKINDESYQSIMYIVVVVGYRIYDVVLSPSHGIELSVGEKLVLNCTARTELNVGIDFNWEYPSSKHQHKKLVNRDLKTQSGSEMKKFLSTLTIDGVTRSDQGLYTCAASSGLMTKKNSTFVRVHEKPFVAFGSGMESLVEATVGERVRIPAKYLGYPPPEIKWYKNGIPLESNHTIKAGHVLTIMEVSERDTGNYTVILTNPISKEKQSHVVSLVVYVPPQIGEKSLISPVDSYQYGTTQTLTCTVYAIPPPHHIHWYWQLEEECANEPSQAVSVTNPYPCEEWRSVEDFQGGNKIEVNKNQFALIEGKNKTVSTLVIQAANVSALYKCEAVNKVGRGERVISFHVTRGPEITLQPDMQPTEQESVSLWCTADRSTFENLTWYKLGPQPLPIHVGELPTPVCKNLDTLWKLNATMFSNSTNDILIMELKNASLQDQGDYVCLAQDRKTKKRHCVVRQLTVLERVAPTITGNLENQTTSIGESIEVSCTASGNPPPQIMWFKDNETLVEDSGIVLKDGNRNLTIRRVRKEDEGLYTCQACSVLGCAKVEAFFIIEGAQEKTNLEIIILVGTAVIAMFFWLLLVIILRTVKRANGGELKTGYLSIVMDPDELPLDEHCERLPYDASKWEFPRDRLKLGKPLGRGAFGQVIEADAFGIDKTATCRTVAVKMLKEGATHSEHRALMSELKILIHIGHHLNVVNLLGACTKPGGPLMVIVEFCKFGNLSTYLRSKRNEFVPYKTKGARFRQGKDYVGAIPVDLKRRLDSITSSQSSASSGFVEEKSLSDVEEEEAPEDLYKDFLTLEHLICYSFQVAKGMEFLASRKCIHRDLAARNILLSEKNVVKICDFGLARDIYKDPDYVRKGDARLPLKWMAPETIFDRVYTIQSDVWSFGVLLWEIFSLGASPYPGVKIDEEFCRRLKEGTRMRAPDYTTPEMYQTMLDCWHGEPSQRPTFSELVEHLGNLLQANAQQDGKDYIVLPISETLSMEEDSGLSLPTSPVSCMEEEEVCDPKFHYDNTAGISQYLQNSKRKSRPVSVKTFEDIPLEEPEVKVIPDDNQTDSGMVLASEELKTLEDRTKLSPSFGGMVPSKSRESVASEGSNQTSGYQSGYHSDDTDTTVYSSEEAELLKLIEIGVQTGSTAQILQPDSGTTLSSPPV

One may read the IC50 as the point on the concentration scale where inhibition reaches its midpoint. A high value points to weaker potency. `COc1cc(OC)cc(-c2cc3cnc(NCCCCN4CCOCC4)cc3nc2NC(=O)NC(C)(C)C)c1`: the concentration for half-maximal inhibition (IC50) in test [1] amounted to 2.7 µM; in test [2], 15 µM; in test [3], 21 µM.

As for `CCNC(=O)Nc1nc2cc(NCCCN3CCN(C)CC3)ncc2cc1-c1cc(OC)cc(OC)c1`, the IC50 was found to be 7.5 µM in test [1], 30 µM in test [2] and 14 µM in test [3].

In the case of `COc1cc(OC)cc(C2Cc3cnc(N(CCCOCc4ccccc4)C(C)=O)cc3N=C2NC(=O)NC(C)(C)C)c1` (stereo unspecified), the IC50 in test [2] and in test [3] was above 50 µM in each case.

Take `CCN(CC)CCCCNc1cc2nc(N)c(-c3c(Cl)cccc3Cl)cc2cn1`: the results for the 50% inhibitory concentration (IC50) in test [2] and in test [3] were 4 µM and 0.042 µM, respectively.

`CCN(CC)CCCCNc1cc2nc(N)c(-c3cc(OC)cc(OC)c3)cc2cn1`: the concentration for half-maximal inhibition (IC50) in test [1] was 5.9 µM; in test [2], above 50 µM; in test [3] it was 26 µM.

Take `COc1cc(OC)cc(-c2cc3cnc(NCCCN4CCN(C)CC4)nc3nc2NC(=O)NC(C)(C)C)c1`: the IC50 in test [1] amounted to 7.9 µM; in test [2], 31 µM; in test [3] it was 26 µM.

As to `COc1cc(OC)cc(-c2cc3cnc(NCCCCOc4ccccc4)cc3nc2NC(=O)NC(C)(C)C)c1`, the IC50 in test [2] and in test [3] was above 50 µM throughout.

As for `COc1cc(OC)cc(-c2cc3cnc(N(CCCCOCc4ccccc4)C(C)=O)cc3nc2NC(=O)NC(C)(C)C)c1`, the concentration for half-maximal inhibition (IC50) in test [2] and in test [3] was above 50 µM each time.

In the case of `CCN(CC)CCCCNc1cc2nc(NC(=O)NC(C)(C)C)c(-c3ccccc3)cc2cn1`, the IC50 is 0.45 µM in test [2] and 0.11 µM in test [3].

For the molecule `COc1cc(OC)cc(-c2cc3cnc(N(CCCCO)C(C)=O)cc3nc2NC(=O)NC(C)(C)C)c1`, the IC50 in test [2] and in test [3] was above 50 µM throughout.

Turning to `COc1cc(OC)cc(-c2cc3cnc(NCCCCCN4CCN(C)CC4)cc3nc2NC(=O)NC(C)(C)C)c1`, the values for the half-inhibitory concentration (IC50) in test [1], in test [2] and in test [3] were 0.98 µM, 27 µM and 6.1 µM, respectively.

Take `CCNC(=O)Nc1nc2nc(NCCCN3CCN(C)CC3)ncc2cc1-c1cc(OC)cc(OC)c1`: the values for the IC50 in test [1], in test [2] and in test [3] were 12 µM, 45 µM and 35 µM, respectively.

`COc1cc(OC)cc(-c2cc3cnc(NCCCN4CCN(C)CC4)cc3nc2NC(=O)NC(C)(C)C)c1`: the values for the IC50 in test [1], in test [2] and in test [3] were 1.8 µM, 16 µM and 9.1 µM, respectively.

Consider `CN1CCN(CCCNc2cc3nc(N)c(-c4ccccc4)cc3cn2)CC1`, for which the half-maximal inhibitory concentration (IC50) in test [2] is 8.8 µM; in test [3], 1.6 µM.

For `COc1cc(OC)cc(-c2cc3cnc(NCCCCN4CCN(C)CC4)cc3nc2NC(=O)NC(C)(C)C)c1`, the IC50 was determined as 1.3 µM in test [1], 3.6 µM in test [2] and 4.1 µM in test [3].

With `CCNC(=O)Nc1nc2cc(NCCCCN(CC)CC)ncc2cc1-c1c(Cl)cccc1Cl`, the concentration for half-maximal inhibition (IC50) in test [2] is 0.16 µM; in test [3], 0.014 µM.

As for `CCNC(=O)Nc1nc2cc(NCCCN3CCN(C)CC3)ncc2cc1-c1c(Cl)cccc1Cl`, the IC50 came to 0.54 µM in test [2] and 0.019 µM in test [3].

Consider `COc1cc(OC)cc(C2Cc3cnc(N(CCCCOCc4ccccc4)C(C)=O)cc3N=C2NC(=O)NC(C)(C)C)c1` (stereo unspecified), for which the half-inhibitory concentration (IC50) in test [2] and in test [3] was above 50 µM throughout.

`CCN(CC)CCCCNc1cc2nc(N)c(-c3ccccc3)cc2cn1`: the half-maximal inhibitory concentration (IC50) in test [2] amounted to 12 µM; in test [3], 1.4 µM.

As for `CCNC(=O)Nc1nc2cc(NCCCCN(CC)CC)ncc2cc1-c1cc(OC)cc(OC)c1`, the half-inhibitory concentration (IC50) in test [1] is 3.5 µM; in test [2], 6.5 µM; in test [3], 7 µM.

Regarding `COc1cc(OC)cc(-c2cc3cnc(NCCCCCOc4ccccc4)cc3nc2NC(=O)NC(C)(C)C)c1`, the IC50 in test [2] and in test [3] was above 50 µM each time.

Take `COc1cc(OC)cc(C2Cc3cnc(N(CCCCCOCc4ccccc4)C(C)=O)cc3N=C2NC(=O)NC(C)(C)C)c1` (stereo unspecified): the IC50 in test [2] and in test [3] was above 50 µM throughout.

Turning to `CCNC(=O)Nc1nc2nc(NCCCCN(CC)CC)ncc2cc1-c1cc(OC)cc(OC)c1`, the IC50 in test [1] is above 25 µM; in test [2] it was 27 µM; in test [3] it was 22 µM.

As for `COc1cc(OC)cc(-c2cc3cnc(N(CCCOCc4ccccc4)C(C)=O)cc3nc2NC(=O)NC(C)(C)C)c1`, the IC50 in test [2] and in test [3] was above 50 µM each time.

As to `COc1cc(OC)cc(-c2cc3cnc(NCCCOc4ccccc4)cc3nc2NC(=O)NC(C)(C)C)c1`, the 50% inhibitory concentration (IC50) in test [2] and in test [3] was above 50 µM in each case.

For the molecule `CCN(CC)CCCCNc1cc2nc(NC(=O)NC(C)(C)C)c(-c3cc(OC)cc(OC)c3)cc2cn1`, the IC50 in test [1] was found to be 2.1 µM; in test [2], 2.6 µM; in test [3], 4.6 µM.

Take `COc1cc(OC)cc(-c2cc3cnc(NCCCCCN4CCOCC4)cc3nc2NC(=O)NC(C)(C)C)c1`: the IC50 in test [1] was 2.9 µM; in test [2], above 50 µM; in test [3] it was 16 µM.

With `CN1CCN(CCCNc2cc3nc(N)c(-c4c(Cl)cccc4Cl)cc3cn2)CC1`, the IC50 in test [2] worked out at 4.7 µM; in test [3], 0.069 µM.

In the case of `COc1cc(OC)cc(-c2cc3cnc(NCCCN4CCN(C)CC4)cc3nc2N)c1`, the half-inhibitory concentration (IC50) in test [1] is 9.1 µM; in test [2], 50 µM; in test [3], above 50 µM.

Regarding `COc1cc(OC)cc(C2Cc3cnc(N(CCCCO)C(C)=O)cc3N=C2NC(=O)NC(C)(C)C)c1` (stereo unspecified), the IC50 in test [2] and in test [3] was above 50 µM throughout.

For the molecule `CN1CCN(CCCNc2cc3nc(NC(=O)NC(C)(C)C)c(-c4c(Cl)cccc4Cl)cc3cn2)CC1`, the IC50 in test [2] was 0.62 µM; in test [3] it was 0.019 µM.

On to `COc1cc(OC)cc(C2Cc3cnc(N(CCCCCO)C(C)=O)cc3N=C2NC(=O)NC(C)(C)C)c1` (stereo unspecified), for which the IC50 in test [2] and in test [3] was above 50 µM in each case.

With `CCN(CC)CCCCCNc1cc2nc(NC(=O)NC(C)(C)C)c(-c3cc(OC)cc(OC)c3)cc2cn1`, the IC50 in test [1] stood at 1.5 µM; in test [2], 5 µM; in test [3] it was 3.6 µM.

As for `COc1cc(OC)cc(-c2cc3cnc(NCCCO)cc3nc2NC(=O)NC(C)(C)C)c1`, the half-maximal inhibitory concentration (IC50) was 1.8 µM in test [1], 32 µM in test [2] and above 50 µM in test [3].

Regarding `COc1cc(OC)cc(-c2cc3cnc(NCCCN4CCOCC4)cc3nc2NC(=O)NC(C)(C)C)c1`, the half-maximal inhibitory concentration (IC50) in test [1] is 3.4 µM; in test [3], above 50 µM.

As to `CN1CCN(CCCNc2cc3nc(NCCCN4CCN(C)CC4)c(-c4ccccc4)cc3cn2)CC1`, the values for the IC50 in test [2] and in test [3] were above 50 µM and 6.8 µM, respectively.

With `COc1cc(OC)cc(-c2cc3cnc(N(CCCO)C(C)=O)cc3nc2NC(=O)NC(C)(C)C)c1`, the IC50 in test [2] and in test [3] was above 50 µM each time.

Consider `COc1cc(OC)cc(C2Cc3cnc(N(CCCO)C(C)=O)cc3N=C2NC(=O)NC(C)(C)C)c1` (stereo unspecified), for which the concentration for half-maximal inhibition (IC50) in test [2] and in test [3] was above 50 µM each time.

With `CCN(CC)CCCNc1cc2nc(NC(=O)NC(C)(C)C)c(-c3cc(OC)cc(OC)c3)cc2cn1`, the values for the IC50 in test [1], in test [2] and in test [3] were 4 µM, 18 µM and 16 µM, respectively.

For `COc1cc(OC)cc(-c2cc3cnc(N(CCCCCO)C(C)=O)cc3nc2NC(=O)NC(C)(C)C)c1`, the IC50 in test [2] and in test [3] was above 50 µM throughout.

With `COc1cc(OC)cc(-c2cc3cnc(NCCCO)nc3nc2NC(=O)NC(C)(C)C)c1`, the IC50 was 11 µM in test [1], above 50 µM in test [2] and above 50 µM in test [3].

For `CCN(CC)CCCCNc1cc2nc(NC(=O)NC(C)(C)C)c(-c3c(Cl)cccc3Cl)cc2cn1`, the values for the half-inhibitory concentration (IC50) in test [2] and in test [3] were 0.48 µM and 0.014 µM, respectively.

Regarding `COc1cc(OC)cc(-c2cc3cnc(NCCCCCO)cc3nc2NC(=O)NC(C)(C)C)c1`, the half-inhibitory concentration (IC50) in test [1] was 3.4 µM; in test [2], 11 µM; in test [3] it was above 50 µM.

Turning to `COc1cc(OC)cc(-c2cc3cnc(N(CCCCCOCc4ccccc4)C(C)=O)cc3nc2NC(=O)NC(C)(C)C)c1`, the IC50 in test [2] and in test [3] was above 50 µM throughout.

`COc1cc(OC)cc(-c2cc3cnc(NCCCCO)cc3nc2NC(=O)NC(C)(C)C)c1`: the half-maximal inhibitory concentration (IC50) in test [1] is 1.2 µM; in test [2], 23 µM; in test [3], above 50 µM.

For the molecule `CN1CCN(CCCNc2cc3nc(NC(=O)NC(C)(C)C)c(-c4ccccc4)cc3cn2)CC1`, the IC50 in test [2] came to 1.2 µM; in test [3] it was 0.23 µM.

Consider `CCN(CC)CCCCNc1ncc2cc(-c3cc(OC)cc(OC)c3)c(NC(=O)NC(C)(C)C)nc2n1` [PD-173074], for which the half-inhibitory concentration (IC50) in test [1] worked out at 17 µM; in test [4], 0.19 µM; in test [2] it was 14 µM; in test [5] it was 0.12 µM; in test [3], 20 µM.
